Like-named read-outs stand apart in the source and are kept apart here.
Key:
[1] = test system: T cells (PBL) on TNF-α and IFN-α stimulated endothelial cells (EC); assay type: cell-based; settings: FIG. 1
Protocol: (§1) We measured the transmigration of T cells (PBL) after 6 minutes incubation at 37° C. on TNF-α and IFN-α stimulated endothelial cells (EC) using phase contrast microscopy. Cultured ECs were stimulated by cytokines for 24 hours. Subsequently, peripheral blood lymphocytes (PBL) were purified from the blood of healthy donors. PEPITEM was added to the PBL and these were incubated on the endothelial cells for 6 minutes. Non-adherent PBLs were removed by washing with cell free buffer. Video-microscope images of adherent cells were made from at least 5 fields of view for each EC monolayer. Adherent lymphocytes were either, i) phase bright (PB) and adherent to the apical surface of the endothelium, or ii) phase dark (PD) and migrated through the EC monolayer. The percentage of migrated cells was calculated by dividing the number of migrated cells by the total number of adherent lymphocytes (PB+PD) and multiplying by 100. To determine whether PEPITEM targets T-cells or endothelial cells, we pre-treated T-cells, endothelial cells or both T cells and endothelial cells with PEPITEM.

[2] = test system: T cells (PBL) on HUVEC where CDH15 or THBS1 were knock-down; assay: T cell transmigration assay using endothelial cells with siRNA knock-down of CDH15 or THBS1; assay type: cell-based, human; settings: FIG. 4
Protocol: as §1
HUVEC were plated in a 12 well plate (87500 cells per well) for 24 hours or until about 80% confluence. The relevant siRNA were added at a final concentration of 50 nM to 83.75 μl or 82.5 μl if duplex in Optimem media (Life Technologies Invitrogen Compounds). […]

[3] = target: T1, CDH15-FC protein (Homo sapiens, UniProt P55291); assay: Surface plasmon resonance (Biocore 3000), PEPITEM perfused over immobilised CDH15-FC; assay type: binding; settings: PEPITEM perfused at increasing concentration; FIG. 5
T1 construct: Fc
T1 sequence (P55291 with tags, fused parts or gaps limits assumed): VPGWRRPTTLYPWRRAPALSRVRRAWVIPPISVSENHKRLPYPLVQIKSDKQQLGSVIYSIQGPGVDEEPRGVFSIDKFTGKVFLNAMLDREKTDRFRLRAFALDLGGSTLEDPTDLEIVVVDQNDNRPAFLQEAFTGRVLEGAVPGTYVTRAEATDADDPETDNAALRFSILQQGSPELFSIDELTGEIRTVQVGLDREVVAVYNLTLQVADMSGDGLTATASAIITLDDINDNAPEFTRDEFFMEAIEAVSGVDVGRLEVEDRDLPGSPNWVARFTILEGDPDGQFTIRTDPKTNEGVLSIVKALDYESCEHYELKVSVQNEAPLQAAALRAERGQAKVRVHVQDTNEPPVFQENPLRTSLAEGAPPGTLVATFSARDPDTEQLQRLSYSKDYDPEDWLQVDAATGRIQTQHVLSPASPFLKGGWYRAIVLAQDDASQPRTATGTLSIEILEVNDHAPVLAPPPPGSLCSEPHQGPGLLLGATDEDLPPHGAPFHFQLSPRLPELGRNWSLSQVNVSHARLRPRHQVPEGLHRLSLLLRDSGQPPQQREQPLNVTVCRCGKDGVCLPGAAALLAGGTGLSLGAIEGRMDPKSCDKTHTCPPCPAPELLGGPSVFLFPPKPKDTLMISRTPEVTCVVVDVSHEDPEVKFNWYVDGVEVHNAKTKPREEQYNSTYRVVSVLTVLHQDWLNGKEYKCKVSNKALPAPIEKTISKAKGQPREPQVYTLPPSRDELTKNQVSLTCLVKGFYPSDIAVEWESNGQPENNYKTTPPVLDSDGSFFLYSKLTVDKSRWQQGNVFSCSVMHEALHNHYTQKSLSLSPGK
Text: Gold-coated chips were used to analyse the interaction of CDH15 with PEPITEM in the Biocore 3000 instrument. CDH15-FC protein was immobilised on a Biocore chip. PEPITEM was perfused through the Biocore cell at increasing concentration. […] This provides further evidence that cadherin-15 is the PEPITEM receptor.

PEPITEM (SVTEQGAELSNEER; listed as Homo sapiens)
inhibition of T cell transmigration ([1]; T-cells alone pre-treated with PEPITEM): ineffective at inhibiting transmigration
inhibition of T cell transmigration ([1]; endothelial cells pre-treated with PEPITEM): transmigration is successfully inhibited
inhibitory effect on T cell transmigration ([2]; endothelial cells with CDH15 (cadherin-15) knockdown): released T-cells from the inhibitory effects
effect on T-cell trafficking ([2]; endothelial cells with THBS1 (thrombospondin-1) knockdown, presence of PEPITEM): no significant effect
binding to CDH15 protein (changes in SPR) [3]: able to bind to the CDH15 protein

— US20160152704A1, “CADHERIN 15 AGONISTS” (THE UNIVERSITY OF BIRMINGHAM, priority 2013, published 2016)
